Molecules are shown by their SMILES.

`O=[N+]([O-])c1cc(F)c(N2CCC3(CC2)CO3)c(F)c1` had a melting point of 96 to 97 °C.

For `N#Cc1ccc(-c2nc(C(=O)Nc3nccs3)c(-c3ccc(F)cc3)[nH]2)cc1`, the melting point is over 250 °C.

On to `COc1ccc(S(=O)(=O)C(C)(Cc2ccc(OCCCN3CCC(c4cccc(Cl)c4)CC3)cc2)C(=O)NO)cc1` (stereo not given), for which the melting point stood at 122 °C.

`COC(=O)c1cc(-c2ccc(C)c(C)c2)n(Cc2ccc(F)cc2)n1` displayed a melting point of 93 °C.

Regarding `COC(=O)c1cc2cc(C(=O)c3cccc(CC#N)c3)sc2s1`, the melting point amounted to 184 °C.

In turn, `COc1ccccc1-c1oc2cccc3c2c1C=CC3=O` gave a melting point of 144 °C.

`O=C(Oc1ccccc1)c1ccccc1S` registered a melting point of 135 °C.

In turn, `CC(C)NCCCCCOc1ccc(O)cc1` had a melting point of 95 to 99 °C.

Compound `N#Cc1nn(-c2c(Cl)cc(C(F)(F)F)cc2Cl)c(N)c1-c1cccc2ccccc12` displayed a melting point of 208 °C.

On to `COc1ccc2nc([C@H](CC(C)C)NC(=O)OCc3ccccc3)[nH]c2c1`, for which the melting point lay in the range of 73 to 77 °C.

`CCCN(CCC)C(=O)CNc1nc(-c2ccccc2)nc(CC)c1C` registered a melting point of 83 to 84 °C.

With `O=Cc1ccn(-c2c(Cl)cc(C(F)(F)F)cc2Cl)c(=O)c1`, the melting point fell in the range of 115 to 117 °C.

Consider `CCOC(=O)CNc1c(C)cc(C(O)(C(F)(F)F)C(F)(F)F)cc1C`, for which the melting point lay in the range of 91 to 93 °C.

With `N#CC(C(=O)Nc1ccc(Cl)cc1)C(=O)c1ccc[nH]1` (stereo not given), the melting point lay in the range of 219 to 221 °C.

On to `Clc1cc2c(cc1Cl)OCCO2`, for which the melting point lay within 147 to 148 °C.

In the case of `CCC1(CC)c2cc(C)c(C)cc2C(CC)(CC)N1OC(C)=O`, the melting point was in the range of 80 to 82 °C.

On to `ClCc1ccc(-c2ccc(CCl)cc2)cc1`, for which the melting point lay in the range of 137 to 138 °C.

Consider `COc1ccc(S(=O)(=O)C2(C(=O)O)CCN(Cc3ccc(OCCN4CCCCC4)cc3)CC2)cc1`, for which the melting point is 114 °C.

`Cc1ncoc1C(C)(O)c1cccs1` (stereo not given) showed a melting point of 84 to 85 °C.

`O=C1C(=Cc2ccncc2)c2ccccc2N1c1ccccc1`: the melting point fell in the range of 160 to 162 °C.

Take `CC(=O)C1CCC2C3CCC4CC(O)C(N5CCSC(C)(C)C5)CC4(C)C3CCC12C` (stereo not given): the melting point fell in the range of 184 to 185 °C.

As for `Cc1oc(-c2ccccc2)nc1CCOc1ccc(CC#N)cc1`, the melting point fell in the range of 109 to 110 °C.

As for `COc1c(C)c2c(c(O)c1C/C=C(\C)CCC(=O)N1C(=O)OC[C@@H]1Cc1ccccc1)C(=O)OC2`, the melting point fell in the range of 112 to 113 °C.

`CCOC(=O)[C@H](Cc1cccc(OS(=O)(=O)C(F)(F)F)c1)NC(=O)C(F)(F)F`: the melting point was in the range of 38 to 39 °C.

The compound `COc1ccc(-c2nc(C(N)=O)cn2-c2ccc(OC)cc2)cc1` yielded a melting point of 167 to 169 °C.

Turning to `CCCn1c(=O)c2c(nn3cc(-c4ccccc4)[nH]c23)n(Cc2ccccc2)c1=O`, the melting point lay in the range of 261 to 262 °C.

For the compound `CCc1cccc(C)c1S(=O)(=O)c1nn(C(=O)N(CC)CC)cc1C#N`, the melting point lay within 101 to 102 °C.

Consider `Cn1c(=O)c2cn(S(=O)(=O)CCCCl)nc2n(C)c1=O`, for which the melting point is 160 to 162 °C.

The compound `O=C1C=CC(=O)N1c1ccc(S(=O)(=O)C(I)I)cc1` gave a melting point of 217 °C.

Regarding `CN(CCc1ccccc1)C(=O)C(C)(Cc1c[nH]c2ccccc12)NC(=O)OC1C2CC3CC(C2)CC1C3` (stereo not given), the melting point lay within 90 to 95 °C.

`CC(=O)C(=Cc1ccc(O)c(C(=O)O)c1)C(C)=O` registered a melting point of 112 to 114 °C.

Regarding `Fc1ccc(C2OC3(CCNCC3)N3CCCCC23)cc1` (stereo not given), the melting point lay in the range of 112 to 114 °C.

Regarding `Cc1c(C(=O)N(C)c2ccc(N3CCC(O)CC3)c(C#N)c2)cnn1-c1ccc(F)cc1`, the melting point is 211 to 212 °C.

`NC(=O)N(O)C1CCC(c2ccccc2)CC1` (stereo not given): the melting point lay in the range of 161 to 162 °C.

Consider `Fc1ccc(C(c2ccc(F)cc2)c2cc(Cl)cc(Cl)c2S)cc1`, for which the melting point came out at 95 °C.

With `Cc1c(Cc2ccccc2)c(=O)oc2cc(O)cc(O)c12`, the melting point lay in the range of 258 to 260 °C.

`Cn1nnnc1-c1cc(-c2ccc(F)cc2)sc1-c1ccc(F)cc1` gave a melting point of 175 to 176 °C.

`NC(=O)Cc1ccc(Oc2ccccc2)cc1`: the melting point fell in the range of 161 to 163 °C.

Consider `NS(=O)(=O)CCCOc1ccc2ncnn2n1`, for which the melting point lay within 145 to 147 °C.

As to `CCC(C(=O)N(CC)CC)n1ccc(-c2ccccc2)n1` (stereo not given), the melting point was 63 to 66 °C.

`C=CCn1c(=O)n(-c2ccc3c(c2)OCO3)c2ncc([N+](=O)[O-])cc21` showed a melting point of 152 to 153 °C.

In turn, `COc1ccc(Cl)cc1-n1c(N)nnc1-c1ccc(C(F)(F)F)cc1` returned a melting point of 247 to 248 °C.

In the case of `CC(C)CCCC(C)NC(=O)Oc1ccc(Oc2ccc(Cl)cc2)cc1` (stereo not given), the melting point fell in the range of 46 to 48 °C.

The compound `CC(=C(c1ccc(N(C)C)cc1)c1ccc(N(C)C)cc1)P(c1ccccc1)c1ccccc1` gave a melting point of 95 to 97 °C.

Take `COc1cc(Cl)c(OC)cc1C`: the melting point is 90 to 92 °C.

Take `O=CC1=C(Cl)Nc2cc(F)c(F)cc2C1`: the melting point stood at 260 °C.

In the case of `CNC(=O)c1cc2ccc(OC)cc2n1CCNC(C)=O`, the melting point is 177 to 178 °C.

Compound `CNC(=O)c1cc(-c2ccc(SC)cc2)nn(CC2CC2)c1=O` registered a melting point of 116 to 118 °C.

The compound `CCCn1c(CCOC)nc2c(N)nc3cc(OCCCN)ccc3c21` yielded a melting point of 165 to 166 °C.

`Cc1cc(OC(=S)N(C)C)c(C(C)(C)C)cc1C=O` returned a melting point of 79.5 to 81 °C.

As for `COc1ccc(CN2C(=O)C(C)(c3cc(NS(C)(=O)=O)ccc3Cl)c3cc(Cl)ccc32)c(OC)c1` (stereo not given), the melting point turned out to be 210 °C.

`CCCCCCSC(=O)CS(=O)(=O)Nc1c(C(C)C)cccc1C(C)C` had a melting point of 81 to 83 °C.

The compound `Cc1ccc2c(n1)Nc1ccccc1N(C)C2=O` yielded a melting point of 192 to 194 °C.

As for `CC(C)C[C@H](NC(=O)OCc1ccccc1)C(=O)N[C@@H](Cc1ccccc1)C(=O)CS`, the melting point turned out to be 171 °C.

Take `Cc1ccc(I)cc1O`: the melting point is 60 °C.

`OC(Cn1cncn1)(c1ccc(F)cc1F)C(F)(F)F` (stereo not given) gave a melting point of 110 to 111 °C.

As to `N#CC(O)CC12CCC(c3ccccc31)c1ccccc12` (stereo not given), the melting point fell in the range of 139 to 141 °C.

Regarding `C=C(C(=O)c1ccc(Cl)cc1)c1ccccc1`, the melting point came to 42 °C.

Regarding `C=CCc1c2n(c3ccccc13)C(=O)C(=Cc1ncn(C(c3ccccc3)(c3ccccc3)c3ccccc3)c1C)CC2`, the melting point is 211 to 214 °C.

`CCCc1nc2c(N)nc3ccccc3c2n1CCCCC(=O)N1CCOCC1`: the melting point was in the range of 178 to 179 °C.

The compound `CC(C)(C)OC(=O)Nc1cc(Cl)c(-c2ccccc2)cc1N` came in with a melting point of 109 to 111 °C.

On to `O=C(O)CCOc1cccc(CN2CCCCC2)c1`, for which the melting point fell in the range of 178 to 180 °C.

As for `O=c1[nH]c2c(F)cccc2o1`, the melting point was 131 to 133 °C.

`COCc1cccc2c1ccn2S(=O)(=O)c1ccc(C)cc1` showed a melting point of 85.5 to 89 °C.

On to `CC(C)(C)c1ccc(S(=O)(=O)Oc2ccc(C(c3ccc(OS(=O)(=O)c4ccc(C(C)(C)C)cc4)cc3)(C(F)(F)F)C(F)(F)F)cc2)cc1`, for which the melting point lay within 177 to 180 °C.

(Values after a melting point compilation (Tetko et al.; mined from patent text by program, amines drawn as free bases though some values may be those of a salt).)
